How the values were obtained:
[1] = system: isolated rat liver mitochondria; assay: Mitochondrial oxygen consumption (glutamate/malate or succinate driven, state 4 and state 3); assay type: biochemical; details: DMSO treated samples set as 1; as to State 3 respiration driven by succinate at 10XCmax: key: 0 indicates that the drug had no effects (negative); as to State 3 respiration driven by succinate at 1XCmax: key: 0 indicates that the drug had no effects (negative)
How it was run: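 Rat liver mitochondria (1 mg/ml protein) exposed 5 min to kinase inhibitors in 0.1% DMSO, then O2 consumption measured by Clark-type electrode with glutamate/malate or succinate (state 4), ADP added after 3 min (state 3). Rates normalized to 0.1% DMSO controls set to 1.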

RCC III = RCC III activity in submitochondrial particles; assay type: biochemical, rat; parameters: key to RCC III at 100XCmax: activity relative to DMSO-treated controls (control set as 1 = 100%); details: 100XCmax
How it was run: (§1)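 Inhibitors preincubated 15 min with submitochondrial particles (1 mg/ml) before activity readout. RCC I (rotenone-sensitive fraction) and I/V: A340, and RCC II: A600, each every 1 min for 6 min; RCC III/IV: A550 every 10 s for 2 min. Activities relative to DMSO control set as 1.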

RCC IV = RCC IV activity in submitochondrial particles; assay type: biochemical, rat; parameters: key to RCC IV at 50XCmax / RCC IV at 100XCmax: activity relative to DMSO-treated controls (control set as 1 = 100%); details: 50XCmax; DMSO treated samples set as 1; in %
How it was run: as §1

[2] = system: isolated rat liver mitochondria; assay: Mitochondrial inner membrane potential (MMP), Rhodamine 123; assay type: biochemical; details: difference in signal between KI and DMSO treated samples at the end of experiments
Description: Fig. 3 KI effects on mitochondrial inner membrane potential (MMP). […] In a, c, data are means and standard derivations from three separate experiments. *p < 0.05 as compared to DMSO-treated samples at the end of experiments. In b, data are means of two independent experiments

[3] = system: isolated rat liver mitochondria; assay: Mitochondrial swelling (absorbance at 535 nm); assay type: biochemical; details: difference in signal between KI and DMSO treated samples at the end of experiments; as to Swelling 5XCmax: key: 0 indicates that the drug had no effects (negative)
[4] = system: isolated rat liver mitochondria; details: positive control alamethicin treated samples
[5] = human therapeutic maximal blood concentration, ref product labeling, cited from earlier work
[6] = ref product labeling, cited from earlier work
[7] = system: isolated rat liver mitochondria; assay: Mitochondrial ROS production (CM-H2DCFDA); details: DMSO treated samples set as 1

Which results are given for `CN(C)C/C=C/C(=O)Nc1cc2c(Nc3ccc(F)c(Cl)c3)ncnc2cc1O[C@H]1CCOC1` [afatinib dimaleate]?
State 3 respiration driven by glutamate/malate at 1XCmax ([1]; 1XCmax): 0; State 3 respiration driven by succinate at 1XCmax ([1]; 1XCmax): 0; State 4 respiration driven by glutamate/malate at 1XCmax ([1]; 1XCmax): 0; State 4 respiration driven by succinate at 1XCmax ([1]; 1XCmax): 0; State 3 respiration driven by glutamate/malate at 2.5XCmax ([1]; 2.5XCmax): 0; State 3 respiration driven by succinate at 2.5XCmax ([1]; 2.5XCmax): 0; State 4 respiration driven by glutamate/malate at 2.5XCmax ([1]; 2.5XCmax): 0; State 4 respiration driven by succinate at 2.5XCmax ([1]; 2.5XCmax): 0; State 3 respiration driven by glutamate/malate at 5XCmax ([1]; 5XCmax): 0; State 3 respiration driven by succinate at 5XCmax ([1]; 5XCmax): 0; State 4 respiration driven by glutamate/malate at 5XCmax ([1]; 5XCmax): 0; State 4 respiration driven by succinate at 5XCmax ([1]; 5XCmax): 0; State 3 respiration driven by glutamate/malate at 10XCmax ([1]; 10XCmax): 0; State 3 respiration driven by succinate at 10XCmax ([1]; 10XCmax): 0; State 4 respiration driven by glutamate/malate at 10XCmax ([1]; 10XCmax): 0; State 4 respiration driven by succinate at 10XCmax ([1]; 10XCmax): 0; State 3 respiration driven by glutamate/malate at 20XCmax ([1]; 20XCmax): 0; State 3 respiration driven by succinate at 20XCmax ([1]; 20XCmax): 0; State 4 respiration driven by glutamate/malate at 20XCmax ([1]; 20XCmax): 0; State 4 respiration driven by succinate at 20XCmax ([1]; 20XCmax): 0; State 3 respiration driven by glutamate/malate at 30XCmax ([1]; 30XCmax): 0; State 3 respiration driven by succinate at 30XCmax ([1]; 30XCmax): 0; State 4 respiration driven by glutamate/malate at 30XCmax ([1]; 30XCmax): 0; State 4 respiration driven by succinate at 30XCmax ([1]; 30XCmax): 0; State 3 respiration driven by glutamate/malate at 50XCmax ([1]; 50XCmax): 0; State 3 respiration driven by succinate at 50XCmax ([1]; 50XCmax): 0; State 4 respiration driven by glutamate/malate at 50XCmax ([1]; 50XCmax): 0; State 4 respiration driven by succinate at 50XCmax ([1]; 50XCmax): 0; State 3 respiration driven by glutamate/malate at 100XCmax ([1]; 100XCmax): 0; State 3 respiration driven by succinate at 100XCmax ([1]; 100XCmax): 0; State 4 respiration driven by glutamate/malate at 100XCmax ([1]; 100XCmax): 0; State 4 respiration driven by succinate at 100XCmax ([1]; 100XCmax): 0; RCC III at 100XCmax (RCC III): 0; RCC IV at 50XCmax (RCC IV): 0; MMP measured by Rhodamine 123 at 1XCmax ([2]; 1XCmax): 0; MMP measured by Rhodamine 123 at 2.5XCmax ([2]; 2.5XCmax): 0; MMP measured by Rhodamine 123 at 5XCmax ([2]; 5XCmax): 0; MMP measured by Rhodamine 123 at 10XCmax ([2]; 10XCmax): 0; MMP measured by Rhodamine 123 at 20XCmax ([2]; 20XCmax): 0; MMP measured by Rhodamine 123 at 30XCmax ([2]; 30XCmax): 0; MMP measured by Rhodamine 123 at 50XCmax ([2]; 50XCmax): 0; MMP measured by Rhodamine 123 at 100XCmax ([2]; 100XCmax): 0; Swelling 1XCmax ([3]; 1XCmax): 0; Swelling 2.5XCmax ([3]; 2.5XCmax): 0; Swelling 5XCmax ([3]; 5XCmax): 0; Swelling 10XCmax ([3]; 10XCmax): 0; Swelling 20XCmax ([3]; 20XCmax): 0; Swelling 30XCmax ([3]; 30XCmax): 0; Swelling 50XCmax ([3]; 50XCmax): 0; Swelling 100XCmax ([3]; 100XCmax): 0; Cytochrome c release 1XCmax ([4]; 1XCmax): 0; Cytochrome c release 2.5XCmax ([4]; 2.5XCmax): 0; Cytochrome c release 5XCmax ([4]; 5XCmax): 0; Cytochrome c release 10XCmax ([4]; 10XCmax): 0; Cytochrome c release 20XCmax ([4]; 20XCmax): 0; Cytochrome c release 30XCmax ([4]; 30XCmax): 0; Cytochrome c release 50XCmax ([4]; 50XCmax): 0; Cytochrome c release 100XCmax ([4]; 100XCmax): 0; Cmax (ng or µg/ml) [5]: 0.0252 µg/mL; Cmax ([5]; read-out: Cmax at µM): 0.04 µM; DILI potential (based on labeling) ([6]; 1 DILI positive, 0 negative according to labeling): 1; Labeling for DILI ([6]; BBW: black box warning, W&P: Warnings and Precautions): W&P: ALT↑; ROS measured by CM-H2DCFDA at 1XCmax ([7]; 1XCmax): 0; ROS measured by CM-H2DCFDA at 2.5XCmax ([7]; 2.5XCmax): 0; ROS measured by CM-H2DCFDA at 5XCmax ([7]; 5XCmax): 0; ROS measured by CM-H2DCFDA at 10XCmax ([7]; 10XCmax): 0; ROS measured by CM-H2DCFDA at 20XCmax ([7]; 20XCmax): 0; ROS measured by CM-H2DCFDA at 30XCmax ([7]; 30XCmax): 0; ROS measured by CM-H2DCFDA at 50XCmax ([7]; 50XCmax): 0; ROS measured by CM-H2DCFDA at 100XCmax ([7]; 100XCmax): 0
